Values joined by “and” are separate entries in the source; they are usually repeats but may differ in a detail not shown here. Equal entries are not always repeated.

The subject of the first assay is hNCI-H716. The experiment in a line: hNCI-H716 GLP-1 secretion. The assay is classed as cell-based. The following applies: 2 μM; GLP-1 secretion, single point. An excerpt: Selected compounds of this invention were screened for K-Ras Wnt synthetic lethal, anti-angiogenic activity, Wnt pathway modulatory activity, insulin and GLP-1 secretion modulatory activity, GPR119 receptor agonist activity, mGlu2R antagonist activity, CGRP receptor antagonist activity, Apelin receptor agonist activity and hexokinase 2 inhibitory activity using the PD^2 and TD^2 Screening Panel (Eli Lilly & Company). See Lee, et al. (2011) J. Biomol. Screen. 16:588-602.
(§1) In light of the above results, additional compounds (Table 7) were prepared and phenotypic assays were carried out using hNCI-H716 and mSTC-1 cell lines to monitor GLP-1 secretion (single point (SP) and concentration response curves (CRC)) (Table 8), as well as a secondary assay with pituitary cells (Table 9).
For `COc1ccc([C@@H]2c3c(n(C)c4ccccc34)[C@H]3C=C[C@@H]2C3)cc1` (racemic) [Compound 11b], the “Primary SP hNCI (% Stim.)” value is recorded as −0.5%.

Consider `Cn1c2c(c3ccccc31)[C@@H](c1ccc(C(F)(F)F)cc1)[C@@H]1C=C[C@H]2C1` (racemic) [Compound 11c], for which the “Primary SP hNCI (% Stim.)” value was found to be 1%.

Regarding `CC1(C)c2c([nH]c3ccccc23)C2C=CC1C2` (stereo not shown) [Compound 11p], the “Primary SP hNCI (% Stim.)” value is −0.5%.

For the compound `COc1ccc2[nH]c3c(c2c1)C(C)(C)C1C=CC3C1` (stereo not shown) [Compound 11q], the “Primary SP hNCI (% Stim.)” value is given as 1.3%.

For the compound `COC(=O)c1ccc2[nH]c3c(c2c1)C(C)(C)C1C=CC3C1` (stereo not shown) [Compound 11r], the “Primary SP hNCI (% Stim.)” value is on record as −1.1%.

Staying with this assay, now noted: 2 μM; GLP-1 secretion, single point; read-out: Primary SP hNCI (% Stim.).
Regarding `Cn1c2c(c3ccccc31)[C@@H](c1ccccc1)[C@@H]1C=C[C@H]2C1` [Compound 11a], the activation at 2 µM is -2.8%.

As for `Cn1c2c(c3ccccc31)[C@@H](c1ccco1)[C@@H]1C=C[C@H]2C1` [Compound 11d], the activation at 2 µM is -2.5%.

Take `Cn1c2c(c3ccccc31)[C@@H](c1cccs1)[C@@H]1C=C[C@H]2C1` [Compound 11e]: the activation at 2 µM is -0.5%.

For `CC[C@@H]1c2c(n(C)c3ccccc23)[C@H]2C=C[C@@H]1C2` [Compound 11f], the activation at 2 µM is -1.1%.

`Cn1c2c(c3ccccc31)C(C)(C)[C@@H]1C=C[C@H]2C1` [Compound 11g]: the activation at 2 µM is -0.8%.

As for `Cn1c2c(c3ccccc31)C1(CCC1)[C@@H]1C=C[C@H]2C1` [Compound 11h], the activation at 2 µM was -2.2%.

Turning to `Cn1c2c(c3ccccc31)C1(CCCC1)[C@@H]1C=C[C@H]2C1` [Compound 11i], the activation at 2 µM turned out to be 0%.

Take `Cn1c2c(c3ccccc31)C1(CCCCC1)[C@@H]1C=C[C@H]2C1` [Compound 11j]: the activation at 2 µM is -0.3%.

With `Cn1c2c(c3ccccc31)C1(CCCCC1)[C@@H]1C=C[C@H]2CC1` [Compound 11k], the activation at 2 µM is 3.1%.

`CC1=C(C)CC2(CCCCC2)c2c(n(C)c3ccccc23)C1` [Compound 11l]: the activation at 2 µM is -2%.

With `CC1=CCc2c(c3ccccc3n2C)C(c2ccccc2)C1` (stereo not shown) [Compound 11m], the activation at 2 µM is -2.2%.

`CC1C=CC(C)C(c2ccccc2)c2c1n(C)c1ccccc21` (stereo not shown) [Compound 11n]: the activation at 2 µM worked out at 10.3%.

As for `CC1(C)c2c(n(Cc3ccccc3)c3ccccc23)[C@H]2C=C[C@@H]1C2` [Compound 11o], the activation at 2 µM was -0.3%.

For `CC1(C)c2c([nH]c3ccc(F)cc23)C2C=CC1C2` (stereo not shown) [Compound 11w], the activation at 2 µM is 1.4%.

The same assay, now with this note: 20 μM; GLP-1 secretion, single point.
In the case of `COc1ccc([C@@H]2c3c(n(C)c4ccccc34)[C@H]3C=C[C@@H]2C3)cc1` (racemic) [Compound 11b], the “Primary SP hNCI (% Stim.)” value is listed as −2.4%.

On to `Cn1c2c(c3ccccc31)[C@@H](c1ccc(C(F)(F)F)cc1)[C@@H]1C=C[C@H]2C1` (racemic) [Compound 11c], for which the “Primary SP hNCI (% Stim.)” value was 0.7%.

Take `CC1(C)c2c([nH]c3ccccc23)C2C=CC1C2` (stereo not shown) [Compound 11p]: the “Primary SP hNCI (% Stim.)” value is listed as 23.3%.

Turning to `COc1ccc2[nH]c3c(c2c1)C(C)(C)C1C=CC3C1` (stereo not shown) [Compound 11q], the “Primary SP hNCI (% Stim.)” value is listed as 5.9%.

For `COC(=O)c1ccc2[nH]c3c(c2c1)C(C)(C)C1C=CC3C1` (stereo not shown) [Compound 11r], the “Primary SP hNCI (% Stim.)” value is 13.4%.

The same assay, now with this note: 20 μM; GLP-1 secretion, single point; read-out: Primary SP hNCI (% Stim.).
In the case of `Cn1c2c(c3ccccc31)[C@@H](c1ccccc1)[C@@H]1C=C[C@H]2C1` [Compound 11a], the activation at 20 µM was -0.5%.

As for `Cn1c2c(c3ccccc31)[C@@H](c1ccco1)[C@@H]1C=C[C@H]2C1` [Compound 11d], the activation at 20 µM is -1%.

In the case of `Cn1c2c(c3ccccc31)[C@@H](c1cccs1)[C@@H]1C=C[C@H]2C1` [Compound 11e], the activation at 20 µM is -2.4%.

With `CC[C@@H]1c2c(n(C)c3ccccc23)[C@H]2C=C[C@@H]1C2` [Compound 11f], the activation at 20 µM is -2.4%.

Regarding `Cn1c2c(c3ccccc31)C(C)(C)[C@@H]1C=C[C@H]2C1` [Compound 11g], the activation at 20 µM is -2.7%.

Consider `Cn1c2c(c3ccccc31)C1(CCC1)[C@@H]1C=C[C@H]2C1` [Compound 11h], for which the activation at 20 µM is -3.3%.

In the case of `Cn1c2c(c3ccccc31)C1(CCCC1)[C@@H]1C=C[C@H]2C1` [Compound 11i], the activation at 20 µM was -6%.

`Cn1c2c(c3ccccc31)C1(CCCCC1)[C@@H]1C=C[C@H]2C1` [Compound 11j]: the activation at 20 µM is -3.3%.

With `Cn1c2c(c3ccccc31)C1(CCCCC1)[C@@H]1C=C[C@H]2CC1` [Compound 11k], the activation at 20 µM was -1.9%.

As to `CC1=C(C)CC2(CCCCC2)c2c(n(C)c3ccccc23)C1` [Compound 11l], the activation at 20 µM is -3.3%.

Take `CC1=CCc2c(c3ccccc3n2C)C(c2ccccc2)C1` (stereo not shown) [Compound 11m]: the activation at 20 µM is -1%.

As for `CC1C=CC(C)C(c2ccccc2)c2c1n(C)c1ccccc21` (stereo not shown) [Compound 11n], the activation at 20 µM was -3.5%.

For `CC1(C)c2c(n(Cc3ccccc3)c3ccccc23)[C@H]2C=C[C@@H]1C2` [Compound 11o], the activation at 20 µM is -2.1%.

Take `CC1(C)c2c([nH]c3ccc(F)cc23)C2C=CC1C2` (stereo not shown) [Compound 11w]: the activation at 20 µM amounted to 41.3%.

The same assay, now with this note: GLP-1 secretion, concentration response curve; read-out: Primary CRC (EC50, μM) hNCI.
With `CC1(C)c2c([nH]c3ccc(F)cc23)C2C=CC1C2` (stereo not shown) [Compound 11w], the EC50 is 22.4 µM and 30.3 µM.

Another assay deals with mSTC-1. The experiment in a line: mSTC-1 GLP-1 secretion. The assay is classed as cell-based. The note with it: concentration response curve, read-out: Primary CRC (EC50, μM) mSTC. As to the method:
as §1
For `CC1(C)c2c([nH]c3ccc(F)cc23)C2C=CC1C2` (stereo not shown) [Compound 11w], the EC50 is 23.6 µM and 22.8 µM.
